In publication PMC11590026, “Synthesis, enzyme inhibition, and docking studies of new schiff bases of disalicylic acid methylene-based derivatives as dual-target antibacterial agents” (Frontiers in Chemistry, 2024):
Converted amounts (≈) assume the structure as drawn. Like-named read-outs stand apart in the source and are kept apart here.

Assays:
B. subtilis = assay: MIC/MBC assay, twofold serial dilution; type: cell-based, Bacillus subtilis
Procedure: (§1) The results of this in vitro assay test are consistent with the findings of the antimicrobial sensitivity test. […] It has lower antimicrobial activity than ciprofloxacin against all pathogens tested.
(§2) The MBC differs from the MIC. […]
(§3) 4.2.2. Minimum inhibitory concentration assay
(§4) In 96-well microtiter plates and […] of fresh bacterial culture of a single McFarland unit overnight, a double serial dilution of each compound […] in sterile standard saline were prepared to every single source well. Ciprofloxacin antibiotic (5 mg / mL - 1) and normal saline were included as standard reference in each assay. The plates were incubated at 37 0C overnight. As an indicator of bacterial growth, […] of p-iodonitrotetrazolium violet (INT) was added to each well and incubated at 37 0C for 30 […]
(§5) min. MIC values are recorded as the lowest concentration of the extract that completely inhibited bacterial growth that is clear well. The colorless tetrazolidium salt acts as an electron accepter and is reduced to a red colored formazan product by biological activity organisms. Where bacterial growth was inhibited, the solution in the well remained clear after incubation with INT. […]

S. aureus = assay: MIC/MBC assay, twofold serial dilution; type: cell-based, Staphylococcus aureus
Procedure: as §1, §2, §3, §4, §5

E. coli = assay: MIC/MBC assay, twofold serial dilution; type: cell-based, Escherichia coli; settings: for MBC: read-out: MBC
Procedure: as §1, §2, §3, §4, §5

P. aeruginosa = assay: MIC/MBC assay, twofold serial dilution; type: cell-based, Pseudomonas aeruginosa
Procedure: as §1, §2, §3, §4, §5

[1] = test system: S. aureus (ATCC 43300) (MRSA); assay: Antibacterial assay against multi-drug resistant strains (MIC/MBC); type: cell-based, Staphylococcus aureus; settings: for MBC / MIC: S. aureus ATCC 43300 (MRSA)
E. coli (ATCC BAA-196) = assay: as above; type: cell-based, Escherichia coli; settings: for MBC: ATCCBAA196
[2] = test system: P. aeruginosa (ATCC BAA-2111); assay: as above; type: cell-based, Pseudomonas aeruginosa; settings: for MBC: ATCCBAA2111
E. coli DNA gyrase = E. coli DNA gyrase (Escherichia coli, UniProt P0AES6); assay: E. coli DNA gyrase supercoiling inhibitory assay; type: biochemical
Procedure: The fluorescence was measured with a microplate reader (BioTek Synergy H4,
NaCl and 50 mM MgCl2) was added to terminate the enzymatic reaction. After
Initial screening was done at 100 or 10 μM concentration

DHFR E. Coli = DHFR E. Coli (Escherichia coli, UniProt P0ABQ4); assay: DHFR inhibitory assay; type: biochemical; settings: read-out: IC50 DHFR E. Coli
Chain of DHFR E. Coli (P0ABQ4 whole entry): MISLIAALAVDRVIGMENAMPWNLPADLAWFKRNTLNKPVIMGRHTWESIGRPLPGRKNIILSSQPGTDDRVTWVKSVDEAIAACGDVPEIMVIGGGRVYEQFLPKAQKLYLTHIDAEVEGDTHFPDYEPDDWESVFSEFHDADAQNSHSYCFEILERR

[3] = Cell viability assay (MTT); type: cell-based; settings: human, MCF-10A cells (normal mammary gland epithelial cell line), 4-day incubation
Procedure: The vitality of the investigated compounds was assessed using the MCF-10A cell line, which is a normal human mammary gland epithelial cell line. Following a 4-day incubation period on MCF-10A cells with a concentration of 50 µM for each compound being studied, the viability of the cells was assessed using the MTT test ([Hisham et al., 2022]; [Mahmoud et al., 2022]).
4.2.3. Cell Viability assay
MTT assay was carried out to study the effect of compounds on mammary epithelial cells (MCF-10A). The medium in which cells were propagated contained Dulbecco's modified Eagle's medium (DMEM)/ Ham's F-12 medium (1:1) supplemented with epidermal growth factor (20 ng/mL), hydrocortisone (500 ng/mL), insulin (10 μg/mL), 2 mM glutamine and 10% fetal calf serum. After every 2-3 days, the cells were passaged using trypsin ethylenediamine tetra acetic acid (EDTA). The cells were seeded at a density of 10^4 cells mL-1 in flat-bottomed culture plates containing 96 wells each. After 24 h, medium was removed from the plates and the compounds in (in 0.1% DMSO) were added (in 200 μL medium to yield a final concentration of 0.1% v/v) to the wells of plates. A single compound was designated with four wells followed by incubation of plates for 96h at 37°C. After incubation, medium was removed completely from the plates followed by addition of MTT (0.4 mg/mL in medium) to each well and subsequent incubation of plates for 3h. MTT (along with the medium) was removed and DMSO (150μL) was added to each well of the culture plates, followed by vortexing and subsequent measurement of absorbance (at 540 nm) using microplate reader. The data are shown as percentage inhibition of proliferation in comparison with controls

Gram-positive bacteria = assay: MBC assay, Gram-positive bacteria together; type: cell-based; settings: Gram-positive bacteria (B. subtilis, S. aureus)
Description: The MBC differs from the MIC.

A. flavus = assay: Antifungal assay (MIC/MFC), twofold serial dilution; settings: for MIC: A. flavus
C. albicans = assay: as above
S. aureus biofilm = assay: Antibiofilm assay, microtiter plate biofilm quantification
Procedure: Microtiter plate assay for biofilm quantification
The effect of sample on biofilm formation was evaluated in 96-well polystyrene
flatbottom plates. Briefly, 300 𝜇L of inoculated fresh trypticase soy yeast broth (TSY)
Wells containing medium and those without
extracts and only with methanol were used as controls. Plates were incubated at 37∘C
for 48h. After incubation, supernatant was removed and each well was washed
thoroughly with sterile distilled water to remove free-floating cells; thereafter plates
were air-dried for 30min, and the biofilm formed was stained during 15 min at room
temperature with 0.1% aqueous solution of crystal violet. Following incubation, the
excess of stain was removed by washing the plate three times with sterile distilled water.
each well and after 15min of incubation, absorbance was measured using microplate
reader at a wavelength of 570 nm.
Biofilm inhibition ability of sample=(1- (absorb. sample - absorb. Blank))/
(absorb. control - absorb. Blank))*100

[4] = Bacillus subtilis, read-out: MBC
[5] = Bacillus subtilis, read-out: MIC
[6] = Staphylococcus aureus, read-out: MBC
[7] = Staphylococcus aureus, read-out: MIC
[8] = Escherichia coli, read-out: MIC
[9] = Pseudomonas aeruginosa, read-out: MBC
[10] = Pseudomonas aeruginosa, read-out: MIC
[11] = Escherichia coli, ATCCBAA196, read-out: MIC
[12] = Pseudomonas aeruginosa, ATCCBAA2111, read-out: MIC

O=C1Nc2ccc(Cl)cc2/C1=N/NC(=O)c1cc(Cc2ccc(O)c(C(=O)N/N=C3\C(=O)Nc4ccc(Cl)cc43)c2)ccc1O [Compound 6h]
MBC (B. subtilis): 0.038 ± 0.002 µM (≈ 0.0245 µg/mL)
MIC (B. subtilis): 0.024 ± 0.002 µM (≈ 0.0154 µg/mL)
Times less effective than ciprofloxacin (MIC) (B. subtilis): 2.5 times
MBC (B. subtilis; [4]): 0.038 µM (≈ 0.0245 µg/mL)
MIC (B. subtilis; [5]): 0.024 µM (≈ 0.0154 µg/mL)
MBC (S. aureus): 0.028 ± 0.001 µM (≈ 0.018 µg/mL)
MIC (S. aureus): 0.019 ± 0.001 µM (≈ 0.0122 µg/mL)
Times more effective than ciprofloxacin (MIC) (S. aureus): 1.5 times
MBC (S. aureus; [6]): 0.028 µM (≈ 0.018 µg/mL)
MIC (S. aureus; [7]): 0.019 µM (≈ 0.0122 µg/mL)
MIC (E. coli): 0.054 ± 0.003 µM (≈ 0.0347 µg/mL)
MBC (E. coli; Escherichia coli): 0.074 ± 0.006 µM (≈ 0.0476 µg/mL)
MIC (E. coli; [8]): 0.054 µM (≈ 0.0347 µg/mL)
MBC (P. aeruginosa): 0.074 ± 0.005 µM (≈ 0.0476 µg/mL)
MIC (P. aeruginosa): 0.055 ± 0.004 µM (≈ 0.0354 µg/mL)
MBC (P. aeruginosa; [9]): 0.074 µM (≈ 0.0476 µg/mL)
MIC (P. aeruginosa; [10]): 0.055 µM (≈ 0.0354 µg/mL)
Times more potent than norfloxacin (MBC) ([1]; MRSA strain S. aureus ATCC 43300): around 1.2 times
MBC [1]: 3.20 ± 0.15 µM (≈ 2.06 µg/mL)
MIC [1]: 1.70 ± 0.10 µM (≈ 1.09 µg/mL)
MBC [1, 6]: 3.9 µM (≈ 2.51 µg/mL)
MIC [1, 7]: 1.7 µM (≈ 1.09 µg/mL)
MIC (E. coli (ATCC BAA-196)): 1.90 ± 0.10 µM (≈ 1.22 µg/mL)
MBC (E. coli (ATCC BAA-196); Escherichia coli): 3.7 ± 0.2 µM (≈ 2.38 µg/mL)
MIC (E. coli (ATCC BAA-196); [11]): 1.9 µM (≈ 1.22 µg/mL)
MIC [2]: 3.40 ± 0.20 µM (≈ 2.19 µg/mL)
MBC ([2]; Pseudomonas aeruginosa): 5.8 ± 0.3 µM (≈ 3.73 µg/mL)
MIC [2, 12]: 3.4 µM (≈ 2.19 µg/mL)
Potency relative to novobiocin against DNA gyrase (E. coli DNA gyrase): twice as potent as novobiocin
IC50 (E. coli DNA gyrase; read-out: IC50 E. Coli DNA gyrase): 79 ± 5 nM
IC50 (DHFR E. Coli): 3800 ± 100 nM
viability at 96 h, 50 µM [3]: 93%
MBC (Gram-positive bacteria): 0.028 to 0.058 µM (≈ 0.018 to 0.0373 µg/mL)
MIC (A. flavus): 14.50 µM (≈ 9.33 µg/mL)
MIC (A. flavus; listed as 6 h): 14.50 ± 1 µM (≈ 9.33 µg/mL)
MFC (A. flavus; Aspergillus flavus): 28.5 ± 1 µM (≈ 18.3 µg/mL)
MIC (A. flavus; Aspergillus flavus): 14.5 to 19.5 µM (≈ 9.33 to 12.5 µg/mL)
MIC (C. albicans; C. albicans): 18.20 ± 1 µM (≈ 11.7 µg/mL)
MFC (C. albicans; Candida albicans): 36.5 ± 2 µM (≈ 23.5 µg/mL)
MIC (C. albicans; Candida albicans): 18.2 µM (≈ 11.7 µg/mL)
Biofilm inhibition % (S. aureus biofilm; 1/2 MIC of 6h (S. aureus ATCC 43300)): 87.66%
Biofilm inhibition % (S. aureus biofilm; 1/2 MIC of 6h (S. aureus ATCC 43300), listed as 6 h): 88%
Biofilm inhibition % (S. aureus biofilm; 1/4 of MIC of 6h (S. aureus ATCC 43300)): 64.10%
Biofilm inhibition % (S. aureus biofilm; 1/4 of MIC of 6h (S. aureus ATCC 43300), listed as 6 h): 64%
Biofilm inhibition % (S. aureus biofilm; MIC of 6h (S. aureus ATCC 43300)): 96.95%
Biofilm inhibition % (S. aureus biofilm; MIC of 6h (S. aureus ATCC 43300), listed as 6 h): 97%

Cc1ccc2c(c1)/C(=N/NC(=O)c1cc(Cc3ccc(O)c(C(=O)N/N=C4\C(=O)Nc5ccc(C)cc54)c3)ccc1O)C(=O)N2 [Compound 6j]
MBC (B. subtilis): 0.047 ± 0.002 µM (≈ 0.0283 µg/mL)
MBC (B. subtilis; [4]): 0.047 µM (≈ 0.0283 µg/mL)
MIC (B. subtilis; [5]): 0.031 ± 0.002 µM (≈ 0.0187 µg/mL)
MBC (S. aureus): 0.04 ± 0.002 µM (≈ 0.0241 µg/mL)
MIC (S. aureus): 0.025 ± 0.002 µM (≈ 0.0151 µg/mL)
MBC (S. aureus; [6]): 0.04 µM (≈ 0.0241 µg/mL)
MIC (S. aureus; [7]): 0.025 µM (≈ 0.0151 µg/mL)
MBC (E. coli; Escherichia coli): 0.081 ± 0.006 µM (≈ 0.0488 µg/mL)
MIC (E. coli; [8]): 0.062 ± 0.004 µM (≈ 0.0374 µg/mL)
MBC (P. aeruginosa): 0.08 ± 0.006 µM (≈ 0.0482 µg/mL)
MBC (P. aeruginosa; [9]): 0.08 µM (≈ 0.0482 µg/mL)
MIC (P. aeruginosa; [10]): 0.061 ± 0.005 µM (≈ 0.0368 µg/mL)
MBC [1, 6]: 5.9 ± 0.25 µM (≈ 3.56 µg/mL)
MIC [1, 7]: 3.2 ± 0.15 µM (≈ 1.93 µg/mL)
MBC (E. coli (ATCC BAA-196); Escherichia coli): 6.1 ± 0.25 µM (≈ 3.68 µg/mL)
MIC (E. coli (ATCC BAA-196); [11]): 3.9 ± 0.15 µM (≈ 2.35 µg/mL)
MBC ([2]; Pseudomonas aeruginosa): 7.8 ± 0.3 µM (≈ 4.7 µg/mL)
MIC [2, 12]: 5.6 ± 0.25 µM (≈ 3.37 µg/mL)
IC50 (E. coli DNA gyrase): 117 ± 8 nM
IC50 (DHFR E. Coli): 5100 ± 200 nM
viability at 96 h, 50 µM [3]: 92%
MBC (Gram-positive bacteria): 0.028 to 0.058 µM (≈ 0.0169 to 0.035 µg/mL)
MIC (A. flavus): 16.90 ± 1 µM (≈ 10.2 µg/mL)
MFC (A. flavus; Aspergillus flavus): 33.9 ± 2 µM (≈ 20.4 µg/mL)
MIC (A. flavus; Aspergillus flavus): 14.5 to 19.5 µM (≈ 8.74 to 11.8 µg/mL)
MFC (C. albicans; Candida albicans): 41.5 ± 3 µM (≈ 25 µg/mL)
MIC (C. albicans; Candida albicans): 20.7 ± 1 µM (≈ 12.5 µg/mL)
